{"source": "the SangsterLogP compilation"}
{"assay": "method code SF, from DOI: 10.1002/em.2850190107, PMID: 1732103"}
{"smiles": "Nc1ccccc1-c1ccccc1N", "logP": 1.34}
{"smiles": "Cc1ccc(C)c(N)c1", "logP": 1.83}
{"smiles": "Nc1ccc2c3c(cccc13)-c1ccccc1-2", "logP": 4.2}
{"smiles": "Nc1cccc(C(F)(F)F)c1", "logP": 2.29}
{"smiles": "Cc1ccc(N)cc1N", "logP": 0.14}
{"smiles": "Nc1cc2ccccc2c2ccccc12", "logP": 3.56}
{"smiles": "Cc1ccc(N)c(N)c1", "logP": 0.66}
{"smiles": "Nc1cccc2cc3ccccc3cc12", "logP": 3.69}
{"smiles": "Nc1ccc(Oc2ccc(N)cc2)cc1", "logP": 1.36}
{"smiles": "Nc1cccc2c1Cc1ccccc1-2", "logP": 3.18}
{"smiles": "Nc1ccc2c(c1)Cc1ccccc1-2", "logP": 3.14}
{"smiles": "Nc1cc(Cl)ccc1O", "logP": 1.81}
{"smiles": "COc1ccc(N)c(C)c1", "logP": 1.23}
{"smiles": "Nc1ccc2c(c1)Cc1cc(Br)ccc1-2", "logP": 3.92}
{"smiles": "COc1cc(-c2ccc(N)c(OC)c2)ccc1N", "logP": 1.81}
